The text below walks through data of publication PMC12247152, “Nature‐Inspired Compounds Targeting Escherichia coli WrbA as Biofilm‐Modulating Agents: Computational Design, Synthesis, and Biological Evaluation” (Archiv Der Pharmazie, 2025).

T1 sequence (P0A8G6 2-198): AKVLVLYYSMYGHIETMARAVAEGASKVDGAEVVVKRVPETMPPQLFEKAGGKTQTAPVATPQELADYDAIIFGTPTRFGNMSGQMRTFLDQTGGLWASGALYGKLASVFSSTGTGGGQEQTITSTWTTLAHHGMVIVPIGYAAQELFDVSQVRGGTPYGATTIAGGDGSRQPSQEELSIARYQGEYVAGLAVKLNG

This assay concerns the target T1, WrbA (Escherichia coli, UniProt P0A8G6).
T1 construct: recombinant WrbA protein
Nature of the assay: microscale thermophoresis (MST). The class given is binding. The following applies: read-out: K d ± confidence.
`CC1(C)CC(=O)c2c(O)cc(OCC(=O)NCc3cccc(Cl)c3)cc2O1` [1d, N‐(3‐Chlorobenzyl)‐2‐[(5‐hydroxy‐2,2‐dimethyl‐4‐oxochroman‐7‐yl)oxy]acetamide]: the Kd was 5 ± 1.8 µM.
As to `CC1(C)CC(=O)c2c(O)cc(OCC(=O)NCc3cccc4ccccc34)cc2O1` [1e, 2‐[(5‐Hydroxy‐2,2‐dimethyl‐4‐oxochroman‐7‐yl)oxy]‐N‐(naphthalen‐1‐ylmethyl)acetamide], the Kd came out at 2.1 ± 1.3 µM.
As for `CC1(C)CC(=O)c2c(O)cc(OCC(N)=O)cc2O1` [1a, 2‐[(5‐Hydroxy‐2,2‐dimethyl‐4‐oxochroman‐7‐yl)oxy]acetamide], the Kd stood at 18.7 ± 6.3 µM.
Regarding `CC1(C)CC(=O)c2c(O)cc(OCC(=O)NCCNCc3ccccc3)cc2O1` [1c, N‐[2‐(Benzylamino)ethyl]‐2‐[(5‐hydroxy‐2,2‐dimethyl‐4‐oxochroman‐7‐yl)oxy]acetamide], the Kd came out at 1.4 ± 0.7 µM.
